Test [1] has as its system biofilm of S. aureus ATCC 6538. Put plainly: 96-well plate crystal violet assay for biofilm inhibition. The settings on record: at 100 μg/mL, biofilm of S. aureus, 24 hours; for inhibition at 100 µg/mL: Staphylococcus aureus, ATCC6538, read-out: Antibiofilm Activity (% Inhibition ± SEM). It counts as cell-based, Staphylococcus aureus. On the procedure: The quantitative determination of biofilm inhibition was carried out by the crystal violet assay on a sterile 96-well plate with slight modifications. The glycerol stock of S. aureus was revived overnight at 37°C at 80 rpm. The overnight culture was then diluted 100 folds in fresh BHI broth, supplemented with 0.25% glucose. The cell density was adjusted to 1×10^7 and 195μL of the cell suspension was added in 96-well plate. […] Following that, the plate was washed with sterile distilled water in order to decant the non-adherent cells, and media. The plate was then dried at 60°C for 1 hour, and 200 μL of 0.1% (w/v) crystal violet was added to stain biofilm for 20 minutes. The plate was washed again, air dried, and dispensed 30% (v/v) acetic acid in each well to dissolve the biofilm. The inhibition of biofilm formation was analyzed by measuring the absorbance at 595 nm using the microplate reader (Multiskan Sky, Thermo Scientific, USA). The percent inhibition of biofilm formation was calculated via the following formula: 100−ƛTreated−ƛBlank/ƛControl−ƛBlank×100 Whereƛ=absorbance

The test system of a further test is S. aureus. Kind of test: Antibacterial activity (bacterial growth inhibition). It counts as cell-based, Staphylococcus aureus. The note with it: at 100 μg/mL; for inhibition at 100 µg/mL: Staphylococcus aureus, read-out: Antibacterial Activity (% Inhibition ± SEM).

This note sets out measurements from article PMC11412489, “Coumarin derivatives as new anti-biofilm agents against Staphylococcus aureus” (PLOS ONE, 2024).

Molecules are shown by their SMILES. “Also recorded” adds a separate entry of the source.

Consider `O=c1oc2ccccc2cc1-c1csc(N/N=C/c2ccccc2[N+](=O)[O-])n1` [Compound 21, (E)-3-(2-(2-(2-Nitrobenzylidene)hydrazinyl)thiazol-4-yl)-2H-chromen-2-one], for which, in test [1], the “Antibiofilm Activity (% Inhibition ± SEM)” value is on record as “No Inhibition”.
One may read the inhibition as how much of the control response was suppressed. For `Cc1ccc2oc(=O)c(/C=N/Nc3nc(-c4ccc(Cl)cc4Cl)cs3)c(Cl)c2c1` [Compound 5, (E)-4-Chloro-3-((2-(4-(2,4-dichlorophenyl)thiazol-2-yl)hydrazono)methyl)-6-methyl-2H-chromen-2-one], the inhibition at 100 µg/mL in the test on S. aureus amounted to 36 ± 8.77%. In addition, the “Antibiofilm Activity (% Inhibition ± SEM)” value in test [1] was “No Inhibition”.
In the case of `C/C(=N\Nc1nc(-c2ccc(Cl)c(Cl)c2)cs1)c1cc2ccccc2oc1=O` [Compound 12, (E)-3-(1-(2-(4-(3,4-Dichlorophenyl)thiazol-2-yl)hydrazono)ethyl)-2H-chromen-2-one], the “Antibiofilm Activity (% Inhibition ± SEM)” value in test [1] is recorded as “No Inhibition”.
For the molecule `C/C(=N\NC(N)=S)c1cc2ccccc2oc1=O` [Compound 9, (E)-2-(1-(2-Oxo-2H-chromen-3-yl)ethylidene)hydrazinecarbothioamide], the inhibition at 100 µg/mL in the test on S. aureus is 55 ± 5.43%. Also, in test [1], the inhibition at 100 µg/mL was 22% and the “Antibiofilm Activity (% Inhibition ± SEM)” value is “No Inhibition”.
For the molecule `Cc1ccc2oc(=O)c(/C=N/NC(N)=S)c(Cl)c2c1` [Compound 1, (E)-2-((4-Chloro-6-methyl-2-oxo-2H-chromen-3-yl)methylene)hydrazinecarbothioamide], the “Antibacterial Activity (% Inhibition ± SEM)” value with S. aureus was “inactive”. Also, the “Antibiofilm Activity (% Inhibition ± SEM)” value in test [1] is “inactive”.
With `Cc1ccc2oc(=O)c(/C=N/Nc3nc(-c4ccc(Cl)cc4)cs3)c(Cl)c2c1` [Compound 7, (E)-4-Chloro-3-((2-(4-(4-chlorophenyl)thiazol-2-yl)hydrazono)methyl)-6-methyl-2H-chromen-2-one], the inhibition at 100 µg/mL with S. aureus amounted to 41 ± 11.1%. For the same molecule, the “Antibiofilm Activity (% Inhibition ± SEM)” value in test [1] is reported as “No Inhibition”.
As for `C/C(=N\Nc1nc(-c2ccc(Cl)cc2)cs1)c1cc2ccccc2oc1=O` [Compound 11, (E)-3-(1-(2-(4-(4-Chlorophenyl)thiazol-2-yl)hydrazono)ethyl)-2H-chromen-2-one], the inhibition at 100 µg/mL in the test with S. aureus was determined as 88 ± 4.32%. For the same molecule, in test [1], the inhibition at 100 µg/mL stood at 70 ± 7.09%; the “Antibiofilm Activity (% Inhibition ± SEM)” value is “induced biofilm inhibition; also recorded: dual anti-bacterial and anti-biofilm effect”.
As to `C/C(=N\Nc1nc(-c2cccc([N+](=O)[O-])c2)cs1)c1cc2ccccc2oc1=O` [Compound 13, (E)-3-(1-(2-(4-(3-Nitrophenyl)thiazol-2-yl) hydrazono)ethyl)-2H-chromen-2-one], the “Antibacterial Activity (% Inhibition ± SEM)” value in the test on S. aureus is listed as “No Inhibition”. In test [1], the “Antibiofilm Activity (% Inhibition ± SEM)” value is “No Inhibition”.
For the molecule `O=c1oc2ccccc2cc1-c1csc(N/N=C/c2ccccc2)n1` [Compound 16, (E)-3-(2-(2-Benzylidenehydrazinyl)thiazol-4-yl)-2H-chromen-2-one], the “Antibiofilm Activity (% Inhibition ± SEM)” value in test [1] is “No inhibition”.
Turning to `O=c1oc2ccccc2cc1-c1csc(N/N=C/c2ccc(Cl)cc2Cl)n1` [Compound 20, (E)-3-(2-(2-(2,4-Dichlorobenzylidene)hydrazinyl)thiazol-4-yl)-2H-chromen-2-one], the “Antibiofilm Activity (% Inhibition ± SEM)” value in test [1] is “No Inhibition”.
Regarding `C/C(=N\Nc1nc(-c2ccccc2O)cs1)c1cc2ccccc2oc1=O` [Compound 15, (E)-3-(1-(2-(4-(2-Hydroxyphenyl)thiazol-2-yl)hydrazono)ethyl)-2H-chromen-2-one], the results for the inhibition at 100 µg/mL (in the test on S. aureus; in test [1]) were 73 ± 7.16% and 34 ± 5.11%, respectively. The “Antibiofilm Activity (% Inhibition ± SEM)” value in test [1] is “induced biofilm inhibition”.
As to `O=c1oc2ccccc2cc1-c1csc(N/N=C/c2ccc(Cl)cc2)n1` [Compound 19, (E)-3-(2-(2-(4-Chlorobenzylidene)hydrazinyl)thiazol-4-yl)-2H-chromen-2-one], in the test with S. aureus, the “Antibacterial Activity (% Inhibition ± SEM)” value is reported as “No Inhibition”. Further, the inhibition at 100 µg/mL in test [1] is 37 ± 6.98%.
For `Cc1ccc2oc(=O)c(/C=N/Nc3nc(-c4ccc(Br)cc4)cs3)c(Cl)c2c1` [Compound 6, (E)-3-((2-(4-(4-Bromophenyl)thiazol-2-yl)hydrazono)methyl)-4-chloro-6-methyl-2H-chromen-2-one], the inhibition at 100 µg/mL in the test with S. aureus is 72 ± 7.22%. Besides, in test [1], the inhibition at 100 µg/mL worked out at 61 ± 4.05%; the “Antibiofilm Activity (% Inhibition ± SEM)” value is “induced biofilm inhibition; also recorded: dual anti-bacterial and anti-biofilm effect”.
As for `COc1ccc(-c2csc(N/N=C/c3c(Cl)c4cc(C)ccc4oc3=O)n2)cc1` [Compound 8, (E)-4-Chloro-3-((2-(4-(4-methoxyphenyl)thiazol-2-yl)hydrazono)methyl)-6-methyl-2H-chromen-2-one], the inhibition at 100 µg/mL in the test on S. aureus came to 52 ± 5.08%. Further, in test [1], the inhibition at 100 µg/mL amounted to 66 ± 5.11%; the “Antibiofilm Activity (% Inhibition ± SEM)” value was “induced biofilm inhibition; also recorded: dual anti-bacterial and anti-biofilm effect”.
Take `O=c1oc2ccccc2cc1-c1csc(N/N=C/c2cccc(Cl)c2)n1` [Compound 18, (E)-3-(2-(2-(3-Chlorobenzylidene)hydrazinyl)thiazol-4-yl)-2H-chromen-2-one]: the inhibition at 100 µg/mL with S. aureus turned out to be 32 ± 8.97%; in test [1] it was 25 ± 5.26%.
As for `C/C(=N\Nc1nc(-c2ccc(C#N)cc2)cs1)c1cc2ccccc2oc1=O` [Compound 14, (E)-4-(2-(2-(1-(2-Oxo-2H-chromen-3-yl)ethylidene)hydrazinyl)thiazol-4-yl)benzonitrile], the inhibition at 100 µg/mL in the test on S. aureus is 61 ± 9.33%. Further, in test [1], the inhibition at 100 µg/mL is 68 ± 6.63%; the “Antibiofilm Activity (% Inhibition ± SEM)” value was “induced biofilm inhibition; also recorded: dual anti-bacterial and anti-biofilm effect”.
